From US10690666B2, “Methods and compositions for modulating TH-GM cell function” (National University of Singapore, priority 2014, dated 2020)

B1: IL-23: cytokine (R&D Systems) (protein, UniProt Q9NPF7 20-189; P29460 23-328, looked up)
Interleukin-23 subunit alpha: RAVPGGSSPAWTQCQQLSQKLCTLAWSAHPLVGHMDLREEGDEETTNDVPHIQCGDGCDPQGLRDNSQFCLQRIHQGLIFYEKLLGSDIFTGEPSLLPDSPVGQLHASLLGLSQLLQPEGHHWETQQIPSLSPSQPWQRLLLRFKILRSLQAFVAVAARVFAHGAATLSP
Interleukin-12 subunit beta: IWELKKDVYVVELDWYPDAPGEMVVLTCDTPEEDGITWTLDQSSEVLGSGKTLTIQVKEFGDAGQYTCHKGGEVLSHSLLLLHKKEDGIWSTDILKDQKEPKNKTFLRCEAKNYSGRFTCWWLTTISTDLTFSVKSSRGSSDPQGVTCGAATLSAERVRGDNKEYEYSVECQEDSACPAAEESLPIEVMVDAVHKLKYENYTSSFFIRDIIKPDPPKNLQLKPLKNSRQVEVSWEYPDTWSTPHSYFSLTFCVQVQGKSKREKKDRVFTDKTSATVICRKNASISVRAQDRYYSSSWSEWASVPCS

What was measured:
STAT5 = experiment: Cytokine-induced STAT5 activation in CD4+ T cells, immunoblotting; type: cell-based, mouse; details: for STAT5 activation (tyrosine phosphorylation): CD4+ T cells cultured with TGF-β and IL-6 3 days, starved 6 h
Experimental: (§1) In FIG. 10A, purified CD4^+ T cells were cultured with TGF-β and IL-6 for 3 days, followed by starvation for 6 h. Then cells were treated with various cytokines for 30 min, and pSTAT3 and pSTAT5 was determined by immunoblotting. STAT3 and STAT5 were further detected after stripping. […] The RT-PCR data were normalized to β-Actin. […] The frequencies of GM-CSF^+ and IL-17^+ cells among CD4^+CD44^hi T cells were measured by flow cytometry. *p<0.05.
(§2) FIGS. 17A-17C show flow cytometry of CD25 and CD127 on the surface of naïve CD4^+ T cells or cells activated with anti-CD3 and anti-CD28 at various time points as indicated. […] The RT-PCR data were normalized to β-Actin, and expression in naïve T cells activated for 2 h without cytokine was set to 1.
As shown in FIGS. 18A and 18B, CD4^+ T cells were activated with anti-CD3 and anti-CD28 for 3 days. […] The pTyr-STAT5 and β-Actin were detected by immunoblotting (FIG. 18A). GM-CSF mRNA expression was measured by RT-PCR (FIG. 18B). The RT-PCR data were normalized to β-Actin, and expression in cells without cytokine stimulation was set to 1. The ChIP assay shown in FIG. 18C was performed with normal IgG or STAT5-specific antibody. The binding of antibodies to Csf2 promoter region was detected by RT-PCR.
(§3) Next, the mechanism by which STAT5 regulates GM-CSF expression was investigated. […] Therefore, the effect of these two cytokines on GM-CSF induction in autoreactive T cells was further examined. […] GM-CSF and IL-17 production by CD4^+ T cells were analyzed by intracellular cytokine staining.

naïve CD4+ T cells [1] = experiment: In vitro TH-GM (GM-CSF-expressing TH) differentiation from naïve CD4+ T cells; type: cell-based, mouse; details: anti-CD3 and anti-CD28 plus cytokine or antibody
Experimental: Naïve CD4^+ T cells were primed with plate-bound anti-CD3 and soluble anti-CD28 in the presence of a combination of various cytokines and neutralizing antibodies as indicated. GM-CSF, IL-17 and IFN-γ expression was analyzed by intracellular staining (FIG. 13A) or RT-PCR (FIG. 13B)
GM-CSF and IFN-γ expression in naive CD4^+ T cells activated for 72 h with anti-CD3 alone or plus anti-CD28 (FIG. 14A). In FIG. 14B, sorted naïve CD4^+ T cells were stimulated with anti-CD3 and anti-CD28 in the presence of neutralizing antibodies against IL-12 and IFN-γ without or with the addition of IL-6. The frequencies of GM-CSF^+ and IL-17^+ cells were measured by intracellular staining (FIG. 14B). In FIG. 14C, naïve CD4^+ T cells from Stat3^+/+ and Stat3^−/− mice were polarized under conditions as indicated for 72 h. The frequencies of GM-CSF^+ and IL-17^+ cells were analyzed. In FIG. 14D, naïve CD4^+ T cells were activated with anti-CD3 and anti-CD28 in the presence of IL-2 or anti-IL-2. The frequencies of GM-CSF^+, IL-17^+ and IFN-γ^+ cells were analyzed.
Naïve CD4^+ T cells were primed with plate-bound anti-CD3 and soluble anti-CD28 in the presence of various concentration of IL-7 as indicated. GM-CSF and IFN-γ expression was analyzed by intracellular staining (FIG. 15A) or ELISA (FIG. 15B). In FIGS. 15C and 15D, Stat5^+/+ and Stat5^−/− naïve CD4^+ T cells were activated with anti-CD3 and anti-CD28 in the presence IL-7 for 3 days. GM-CSF, IL-17 and IFN-γ expression was analyzed by intracellular cytokine staining (FIG. 15C). GM-CSF secretion was measured by ELISA (FIG. 15D).
In FIG. 22E, naïve CD4^+ T cells were isolated and activated under neutral condition or TH-GM cell-favoring condition with the addition of different concentrations of STAT5 inhibitor for 3 days. GM-CSF and IFN-γ expression was analyzed by intracellular cytokine staining and flow cytometry.

naïve CD4+ T cells [2] = experiment: In vitro TH17 differentiation; type: cell-based, mouse; details: data not shown
Experimental: CD4^+ T cells were obtained from spleens and lymph nodes by positive selection and magnetic separation (Miltenyi Biotech), followed by purification of naïve CD4^+ T cell population (CD4^+CD25^−CD62L^hiCD44^lo) sorted with FACS Aria. Naïve CD4^+ T cells were stimulated with plate-bound anti-CD3 (3 μg/ml; BD Pharmingen) and anti-CD28 (1 μg/ml; BD Pharmingen) in presence of different combinations of neutralizing antibodies and cytokines for 3˜4 days: for neutral conditions, no addition of any cytokine or neutralizing antibody; for TH1 conditions, IL-12 (10 ng/ml), and anti-IL-4 (10 μg/ml, BD Pharmingen); for TH17 conditions, hTGF-β (3 ng/ml), IL-6 (20 ng/ml), anti-IFN-γ (10 μg/ml, eBioscience), and anti-IL-4 (10 μg/ml); for an alternative TH17 conditions, IL-6 (20 ng/ml), IL-23 (10 ng/ml), IL-1β (10 ng/ml), anti-IFN-γ (10 μg/ml), and anti-IL-4 (10 μg/ml). […] Cells were acquired on the LSR II (BD Biosciences) and analyzed with FlowJo software (Tree Star).
Stat5 deletion (Cd4-cre; Stat5^f/−) mice was reported to develop peripheral lymphopenia, with a reduction of both CD4^+ and CD8^+ T cells (Yao et al., 2006). […] Furthermore, increased frequencies of IL-17^+ and IFN-γ^+ cells were detected among CD4^+ T cells in spleens of Stat5^−/− mice (FIG. 4C), which further support the idea that the resistance to EAE in Stat5^−/− mice is likely independent of TH1 and TH17 generation. […]

naïve CD4+ T cells [3] = experiment: GM-CSF mRNA expression in naïve CD4+ T cells stimulated with IL-2 or IL-7, RT-PCR; type: cell-based, mouse; details: anti-CD3 and anti-CD28 plus cytokine
Experimental: as §2
The primer sequences are available upon request.

CD4+CD44hi T cells = experiment: MOG35-55 challenge of splenocytes from immunized mice, GM-CSF expression; type: cell-based, mouse; details: MOG35-55 (20 μg/ml) plus cytokine, 48 h
Experimental: as §1, §3

[4] = tested on: CD62LhiCD44lo and CD62LloCD44hi T cells; experiment: GM-CSF expression in sorted CD62LhiCD44lo and CD62LloCD44hi T cells, RT-PCR; type: cell-based, mouse; details: anti-CD3 and anti-CD28, cytokine 4 h
Experimental: Splenocytes were obtained from MOG35-55/CFA-immunized Stat5^+/+ and Stat5^−/− mice before disease onset and challenged with MOG35-55 (20 μg/ml) in the absence or presence of IL-7 for 48 h. Frequencies of GM-CSF^+ and IL-17^+ cells among CD4^+CD44^hi T cells were measured by flow cytometry (FIG. 11A). GM-CSF secretion was measured by ELISA (FIG. 11B). Data represent two independent experiments with two to three mice per group. Splenic CD62L^hiCD44^lo and CD62L^loCD44^hi T cells from MOG35-55/CFA-immunized mice were sorted out. Cells were stimulated with anti-CD3 and anti-CD28 in the absence or presence of IL-7 for 4 h and then harvested for the analysis of GM-CSF expression by RT-PCR (FIG. 11C). *p<0.05
Total RNA was extracted from cells with RNeasy kit (Qiagen) according to the manufacturer's instruction. Complementary DNA (cDNA) was synthesized with Superscript reverse transcriptase (Invitrogen). Gene expressions were measured by 7500 real-time PCR system (Applied Biosystems) with SYBR qPCR kit (KAPA). Actinb, Gapdh or Rn18S was used as internal control. The primer sequences are available upon request.
Thus, CD62L^hiCD44^lo and CD62L^loCD44^hi T cells were sorted from Stat5^−/− mice and littermate controls during EAE development, and then activated cells in the presence or absence of IL-7.

naïve CD4+ T cells [5] = details: El-Behi et al., 2011; cited from earlier work

| Molecule | STAT5 activation (tyrosine phosphorylation) (STAT5; cytokine 30 min) | GM-CSF-expressing cell differentiation from naïve CD4+ T cells (naïve CD4+ T cells [1]) | further results |
| --- | --- | --- | --- |
| IL-1β: cytokine (R&D Systems) | neither IL-23 nor IL-1β seemed to be potent STAT5 stimulators | did not increase GM-CSF-expressing cell differentiation | – |
| IL-6: cytokine (R&D Systems), essential for TH17 differentiation | – | profound inhibitory effect | – |
| IL-7: cytokine interleukin-7 (R&D Systems) | potently activated STAT5 | strongly promoted | TH17 differentiation (naïve CD4+ T cells [2]): not observed to have a demonstrable effect; GM-CSF mRNA expression in naïve CD4+ T cells (naïve CD4+ T cells [3]): upregulated GM-CSF mRNA expression; STAT5 activation, Csf2 promoter binding and GM-CSF mRNA in activated CD4+ T cells (STAT5; CD4+ T cells activated 3 days, rested, then cytokine): induced STAT5 activation, Csf2 promoter binding and GM-CSF mRNA upregulation; STAT5 activation in naïve CD4+ T cells (STAT5; naïve CD4+ T cells, cytokine 30 min): induced STAT5 activation; frequency of GM-CSF+ T cells / GM-CSF expression in CD4+CD44hi T cells (CD4+CD44hi T cells): significantly promoted GM-CSF expression; GM-CSF expression in CD62LhiCD44lo and CD62LloCD44hi T cells [4]: promoted GM-CSF expression |
| TGF-β: cytokine (R&D Systems) | – | – | GM-CSF expression (naïve CD4+ T cells [5]): inhibits GM-CSF expression |
| B1 | neither IL-23 nor IL-1β seemed to be potent STAT5 stimulators | did not increase GM-CSF-expressing cell differentiation | – |
